The results in this text go back to ChEMBL document CHEMBL4811289, “Antibacterial and Cytotoxic Phenyltetracenoid Polyketides from Streptomyces morookaense” (J Nat Prod, 2021).

Values after ≈ are worked out from the molar mass of the structure shown.

The subject of one assay is HepG2. In words: Cytotoxicity against human HepG2 cells assessed as reduction in cell viability after 72 hrs by MTT assay. The assay is classed as functional, cell-based. Conditions: Homo sapiens, HepG2, 72 h.
Another assay relates to Vero. Nature of the assay: Cytotoxicity against African green monkey Vero cells assessed as reduction in cell viability after 72 hrs by MTT assay. The assay is classed as cell-based, Chlorocebus sabaeus. The conditions noted are these: Chlorocebus sabaeus, Vero, 72 h.
Assay [1] deals with Staphylococcus aureus. Nature of the assay: Antibacterial activity against methicillin-resistant Staphylococcus aureus ATCC 6548 incubated for 6 to 8 hrs by MABA. It counts as functional. The conditions noted are these: time 6-8 hrs.
The next assay deals with A549. In words: Cytotoxicity against human A549 cells assessed as reduction in cell viability after 72 hrs by MTT assay. The assay is classed as functional, cell-based. The conditions noted are these: Homo sapiens, A549, 72 h.
For a further assay, the system named is HeLa. Nature of the assay: Cytotoxicity against human HeLa cells assessed as reduction in cell viability after 72 hrs by MTT assay. The assay is classed as functional, cell-based. Conditions: Homo sapiens, HeLa, 72 h.
The test system of the next assay is MCF7. In words: Cytotoxicity against human MCF7 cells assessed as reduction in cell viability after 72 hrs by MTT assay. Conditions: Homo sapiens, MCF7, 72 h. It counts as functional, cell-based.
Assay [2] concerns Enterococcus faecium. Nature of the assay: Antibacterial activity against vancomycin-sensitive Enterococcus faecium incubated for 6 to 8 hrs by MABA. It counts as functional. Conditions: time 6-8 hrs.
Assay [3] relates to Staphylococcus aureus. Nature of the assay: Antibacterial activity against methicillin-sensitive Staphylococcus aureus incubated for 6 to 8 hrs by MABA. The assay is classed as functional. The conditions noted are these: time 6-8 hrs.
Assay [4] concerns Enterococcus faecium. Nature of the assay: Antibacterial activity against vancomycin-resistant Enterococcus faecium incubated for 6 to 8 hrs by MABA. The assay is classed as functional. The conditions noted are these: time 6-8 hrs.

As for `COc1cc(C)c(-c2cc(OC)c(Cl)c3cc4c(c(O)c23)C(=O)c2c(cc(OC)c(Cl)c2OC)C4(C)C)c(O)c1`, the IC50 in the assay with HepG2 came to 15 µM; in the assay with Vero, 9 µM; in the assay on A549 it was 8.3 µM; in the assay on HeLa it was 15 µM; in the assay on MCF7, 13.1 µM. Further, the MIC against Staphylococcus aureus [1], in the assay with Enterococcus faecium [2] and with Staphylococcus aureus [3] was over 10 µg/mL in each case.
For `COC1=CC(=O)C(c2cc(OC)cc3cc4c(c(O)c23)C(=O)c2c(cc(OC)c(Cl)c2O)C4(C)C)=C(C)C1=O`, the IC50 with HepG2, with Vero, in the assay on A549, with HeLa and with MCF7 was over 50 µM each time. Besides, the MIC against Staphylococcus aureus [1], against Enterococcus faecium [2] and with Staphylococcus aureus [3] was over 10 µg/mL in each case.
Take `COc1cc(C)c(C(=O)c2c(CC(C)=O)cc3c(c2O)C(=O)c2c(OC)cc(OC)cc2C3(C)C)c(OC)c1`: the IC50 in the assay on HepG2 was over 50 µM; in the assay on Vero, over 50 µM; in the assay on A549, 13.1 µM; in the assay with HeLa, over 50 µM; in the assay on MCF7 it was 29.3 µM. Moreover, the MIC against Staphylococcus aureus [1], in the assay on Enterococcus faecium [2] and against Staphylococcus aureus [3] was over 10 µg/mL in each case.
As to `COc1cc(C)c(-c2cc(O)cc3cc4c(c(O)c23)C(=O)c2c(cc(OC)c(Cl)c2OC)C4(C)C)c(O)c1`, the 50% inhibitory concentration (IC50) in the assay on HepG2 turned out to be 5.7 µM; in the assay on Vero, 3 µM; in the assay with A549, 3.3 µM; with HeLa, 3.9 µM; in the assay with MCF7, 5 µM. The MIC in the assay on Enterococcus faecium [4], against Staphylococcus aureus [1], in the assay on Enterococcus faecium [2] and in the assay with Staphylococcus aureus [3] was 2.5 µg/mL (≈ 4.67 µM) throughout.
In the case of `COc1cc(C)c(-c2cc(OC)cc3cc4c(c(O)c23)C(=O)c2c(cc(OC)c(Cl)c2O)C4(C)C)c(O)c1`, the IC50 came to 8.3 µM in the assay with HepG2; 8.2 µM with Vero; 7.6 µM in the assay on A549; 4.6 µM with HeLa; 7.5 µM in the assay with MCF7. In addition, the MIC with Staphylococcus aureus [1], against Enterococcus faecium [2] and against Staphylococcus aureus [3] was over 10 µg/mL each time.
Consider `COc1cc(C)c(-c2cc(OC)c(Cl)c3cc4c(c(O)c23)C(=O)c2c(cc(OC)c(Cl)c2O)C4(C)C)c(O)c1`, for which the IC50 in the assay on HepG2 worked out at 9.2 µM; with Vero it was 6.1 µM; in the assay with A549 it was 9 µM; in the assay with HeLa, 11.5 µM; with MCF7, 3.8 µM. For the same compound, the MIC in the assay on Staphylococcus aureus [1], against Enterococcus faecium [2] and in the assay with Staphylococcus aureus [3] was over 10 µg/mL in each case.
As for `COc1cc(-c2c(O)cc(OC)c(Cl)c2C)c2c(O)c3c(cc2c1)C(C)(C)c1cc(OC)c(Cl)c(O)c1C3=O`, the IC50 in the assay on HepG2 came to 10.2 µM; in the assay on Vero, 18 µM; in the assay with A549, 7.7 µM; with HeLa, 22.4 µM; in the assay with MCF7 it was 18.3 µM. Further, the MIC with Staphylococcus aureus [1], with Enterococcus faecium [2] and in the assay with Staphylococcus aureus [3] was over 10 µg/mL in each case.
For `COc1cc(C)c(-c2cc(OC)cc3cc4c(c(O)c23)C(=O)c2c(cc(OC)c(Cl)c2OC)C4(C)C)c(O)c1`, the IC50 in the assay with HepG2 was 3.2 µM; in the assay on Vero, 5.8 µM; with A549, 6.4 µM; in the assay on HeLa, 4.1 µM; with MCF7 it was 7.9 µM. Moreover, the minimal inhibitory concentration (MIC) in the assay on Staphylococcus aureus [1], with Enterococcus faecium [2] and with Staphylococcus aureus [3] was over 10 µg/mL in each case.
For the compound `CN[C@H](CC(C)C)C(=O)N[C@H]1C(=O)N[C@@H](CC(N)=O)C(=O)N[C@H]2C(=O)N[C@H]3C(=O)N[C@H](C(=O)N[C@H](C(=O)O)c4cc(O)cc(O)c4-c4cc3ccc4O)[C@H](O)c3ccc(c(Cl)c3)Oc3cc2cc(c3O[C@@H]2O[C@H](CO)[C@@H](O)[C@H](O)[C@H]2O[C@H]2C[C@](C)(N)[C@H](O)[C@H](C)O2)Oc2ccc(cc2Cl)[C@H]1O` [VANCOMYCIN], the figures for the MIC with Enterococcus faecium [4], with Staphylococcus aureus [1] and in the assay with Enterococcus faecium [2] were over 40 µg/mL, 0.63 µg/mL (≈ 0.435 µM) and 1.25 µg/mL (≈ 0.863 µM), respectively.
